Results on 3 compounds are retold here after patent US9181232B2, “Difluoro-hexahydro-cyclopentaoxazinyls and difluoro-hexahydro-benzooxazinyls as BACE1 inhibitors” (Hoffmann-La Roche Inc., priority 2012, dated 2015).

Data set [1] addresses T1, BACE1 (Homo sapiens, UniProt P56817).
T1 construct: Human HEK293 cells which are stably transfected with a vector expressing a cDNA of the human APP wt gene (APP695); endogenous in cells; host or cells: HEK293 stably expressing human APP695 wt
The data set can be described thus: Cellular Aβ-lowering assay (Aβ40 ELISA, HEK293 cells expressing human APP695). It counts as cell-based. Particulars: HEK293 cells stably expressing human APP695; Aβ40 in supernatant after 18-20 hrs; read-out: BACE1 cell act. Aβ40 IC50. As for the experimental part:
Human HEK293 cells which are stably transfected with a vector expressing a cDNA of the human APP wt gene (APP695) were used to assess the potency of the compounds in a cellular assay. The cells were seeded in 96-well microtiter plates in cell culture medium (Iscove, plus 10% (v/v) fetal bovine serum, glutamine, penicillin/streptomycin) to about 80% confluence and the compounds were added at a 10× concentration in 1/10 volume of medium without FCS containing 8% DMSO (final concentration of DMSO was kept at 0.8% v/v). After 18-20 hrs incubation at 37° C. and 5% CO2 in a humidified incubator the culture supernatant was harvested for the determination of Aβ40 concentrations. 96 well ELISA plates (e.g., Nunc MaxiSorb) were coated with monoclonal antibody which specifically recognize the C-terminal end of Aβ40^10. After blocking of non-specific binding sites with e.g. 1% BSA and washing, the culture supernatants were added in suitable dilutions together with a horseradish peroxidase-coupled Aβ detection antibody (e.g., antibody 4G8, Senetek, Maryland Heights, Mo.) and incubated for 5 to 7 hrs. Subsequently the wells of the microtiter plate were washed extensively with Tris-buffered saline containing 0.05% Tween 20 and the assay was developed with tetramethylbenzidine/H2O2 in citric acid buffer. After stopping the reaction with one volume 1 N H2SO4 the reaction was measured in an ELISA reader at 450 nm wavelength. The concentrations of Aβ in the culture supernatants were calculated from a standard curve obtained with known amounts of pure Aβ peptide.
Background: ELISA stands for enzyme-linked immunosorbent assay.

The target of data set [2] is T2, hERG channel (Homo sapiens, UniProt Q12809).
T2 construct: expressed in transfected cells; host or cells: CHO cells
The data set can be described thus: PatchXpress hERG inhibition assay. It counts as cell-based. Particulars: @ 1 μM; CHO cells expressing hERG. As for the experimental part:
The detailed method to quantify hERG channel inhibition by the automated patch clamp system PatchXpress® 7000A (Molecular Devices, Sunnyvale, Calif.) has been described by Guo et al.^12 In brief, Chinese hamster ovary (CHO) cells transfected with the human ether-a-go-go-related gene (hERG) was cultured in Ex-cell 302 media supplemented with 10% fetal bovine serum, 2 mM glutamine and 0.25 mg/ml geneticin and maintained in a CO2 incubator at 37° C. For patch clamp electrophysiology, the external buffer contained (in mM): 150 NaCl, 10 Hepes, 4 KCl, 1.2 CaCl2, 1 MgCl2, pH 7.4 adjusted with […] and the internal recording solution contained (in mM): 140 KCl, 6 EGTA, 5 Hepes, MgCl2, 5 ATP-Na2, pH 7.2 adjusted with KOH. Once the cell was loaded in the recording chamber and formed a giga ohm seal with the planar glass electrodes (Sealchip™), a whole-cell configuration was achieved by rupturing the cell membrane. The membrane potential was then clamped at −80 mV and the hERG channel activated by a 1-second depolarizing pulse delivered at 0.1 Hz, the hERG current was measured during the 500 ms-repolarizing pulse to −40 mV. After an acceptable hERG current recording was obtained, the cell was first exposed to 0.3% DMSO as the vehicle control, followed by the test article in three ascending, full-log interval concentrations and finally E-4031 at 1 μM (as the positive control) to block the hERG current completely. Each test article was tested on three or more cells and at concentrations up to 30 μM or the solubility limit determined the BD Gentest™ solubility scanner. The inhibition of hERG current at each concentration was normalized to that recorded in the vehicle control, and fitted with Hill equation to calculate IC20 and/or IC50.
In general terms: The hERG channel carries a current that helps repolarise heart muscle cells.

Data set [3] addresses T3, P-gp (human MDR1) (Homo sapiens, UniProt P08183).
T3 construct: host or cells: LLC-PK1 (porcine kidney epithelial) transfected with human MDR1 (L-MDR1)
The data set can be described thus: P-gp (P-Glycoprotein) assay, bidirectional transcellular transport in LLC-PK1 and L-MDR1 cells. It is filed as in vitro ADME. Particulars: read-out: P-gp human, efflux ratio: substrate category. As for the experimental part: The LLC-PK1 cell line (ATCC #CL-101) is a porcine kidney epithelial cell line. The MDR1 (Human multidrug resistance protein 1) transfected cell lines were obtained from Dr. A. Schinkel, The Netherlands Cancer Institute (Amsterdam, The Netherlands). All cell lines were cultured on permeable inserts (96-insert plates Millipore, 0.11 cm^2 area, pore size 0.4 μm) at 0.73*10^6 cells/ml. Transport measurements were performed at day 4 after seeding. Tightness of the cell monolayer was controlled via the permeability of the extracellular marker lucifer yellow (10 μM).
Bidirectional transcellular transport using LLC-PK1 and L-MDR1 LLC-PK1 cells exogenously expressing the human MDR1)
The experiments were performed on a TECAN automated liquid handling system. […] Concentrations of substrate in both compartments were determined by scintillation counting (digoxin) or by LC-MS/MS. The extracellular marker (lucifer yellow) was quantified using a spectrafluor plus reader at 430/535 nm (Ex/Em). In each experiment 3 different inserts were used for each condition and a mean was calculated. […]
Where Papp, A, C0, and dQ/dt represent the apparent permeability, the filter surface area, the initial concentration, and the amount transported per time period, respectively. Papp values were calculated on the basis of a single time point (2 h).
Transport efflux ratios (ER) were calculated as follows: […]

A short description of data set [4]: Detection of glutathione conjugates. It counts as in vitro ADME, human. Set-up: key: NF = in vitro no significant adduct formation relative to control. Particulars: in vitro, relative to control. From the text:
The assay conditions for the detection of glutathione conjugates follow the procedure described by C. M. Dieckhaus et al.^13

Structures are written as SMILES.

T2 sequence (Q12809 whole entry): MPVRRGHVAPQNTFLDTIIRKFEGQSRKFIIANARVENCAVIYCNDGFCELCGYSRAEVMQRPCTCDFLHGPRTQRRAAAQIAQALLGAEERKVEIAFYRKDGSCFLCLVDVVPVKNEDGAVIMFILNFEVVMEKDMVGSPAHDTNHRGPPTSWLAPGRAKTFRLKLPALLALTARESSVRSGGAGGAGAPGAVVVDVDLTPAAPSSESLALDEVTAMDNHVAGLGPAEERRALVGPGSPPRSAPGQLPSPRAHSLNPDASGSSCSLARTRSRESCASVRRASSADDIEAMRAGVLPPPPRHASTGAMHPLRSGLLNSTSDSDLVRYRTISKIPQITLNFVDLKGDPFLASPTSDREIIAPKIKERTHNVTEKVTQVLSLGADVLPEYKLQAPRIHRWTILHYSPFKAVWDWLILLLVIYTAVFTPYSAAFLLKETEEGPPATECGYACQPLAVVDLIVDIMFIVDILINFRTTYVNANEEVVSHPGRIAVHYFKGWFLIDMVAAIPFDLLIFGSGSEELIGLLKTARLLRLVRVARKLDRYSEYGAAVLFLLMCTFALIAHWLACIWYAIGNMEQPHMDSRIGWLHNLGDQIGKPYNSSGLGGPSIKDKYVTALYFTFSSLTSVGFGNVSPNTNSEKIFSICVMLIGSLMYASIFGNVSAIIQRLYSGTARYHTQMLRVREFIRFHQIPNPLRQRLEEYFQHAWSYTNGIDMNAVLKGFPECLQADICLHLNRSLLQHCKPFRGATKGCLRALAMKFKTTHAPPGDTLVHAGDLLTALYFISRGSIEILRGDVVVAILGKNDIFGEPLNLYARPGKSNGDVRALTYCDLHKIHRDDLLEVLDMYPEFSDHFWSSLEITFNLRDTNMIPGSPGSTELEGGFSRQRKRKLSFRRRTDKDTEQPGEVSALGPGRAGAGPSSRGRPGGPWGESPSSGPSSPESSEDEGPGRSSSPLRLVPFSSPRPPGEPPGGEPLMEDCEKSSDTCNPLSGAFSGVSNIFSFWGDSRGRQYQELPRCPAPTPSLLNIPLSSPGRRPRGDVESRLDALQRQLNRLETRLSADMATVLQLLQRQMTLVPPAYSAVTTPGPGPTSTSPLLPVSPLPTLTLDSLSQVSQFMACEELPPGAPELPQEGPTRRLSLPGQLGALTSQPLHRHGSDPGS
T1 sequence (P56817 46-501): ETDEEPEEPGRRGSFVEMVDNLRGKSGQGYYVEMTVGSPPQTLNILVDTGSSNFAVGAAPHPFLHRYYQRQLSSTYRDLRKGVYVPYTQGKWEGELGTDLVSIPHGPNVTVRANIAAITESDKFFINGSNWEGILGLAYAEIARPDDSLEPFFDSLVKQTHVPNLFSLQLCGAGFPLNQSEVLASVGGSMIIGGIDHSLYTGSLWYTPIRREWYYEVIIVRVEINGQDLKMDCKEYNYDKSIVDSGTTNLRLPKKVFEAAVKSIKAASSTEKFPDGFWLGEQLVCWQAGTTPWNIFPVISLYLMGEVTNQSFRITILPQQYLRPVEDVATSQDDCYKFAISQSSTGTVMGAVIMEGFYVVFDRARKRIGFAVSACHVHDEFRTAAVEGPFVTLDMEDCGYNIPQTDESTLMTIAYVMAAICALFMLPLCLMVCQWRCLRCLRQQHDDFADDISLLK
T3 sequence (P08183 whole entry): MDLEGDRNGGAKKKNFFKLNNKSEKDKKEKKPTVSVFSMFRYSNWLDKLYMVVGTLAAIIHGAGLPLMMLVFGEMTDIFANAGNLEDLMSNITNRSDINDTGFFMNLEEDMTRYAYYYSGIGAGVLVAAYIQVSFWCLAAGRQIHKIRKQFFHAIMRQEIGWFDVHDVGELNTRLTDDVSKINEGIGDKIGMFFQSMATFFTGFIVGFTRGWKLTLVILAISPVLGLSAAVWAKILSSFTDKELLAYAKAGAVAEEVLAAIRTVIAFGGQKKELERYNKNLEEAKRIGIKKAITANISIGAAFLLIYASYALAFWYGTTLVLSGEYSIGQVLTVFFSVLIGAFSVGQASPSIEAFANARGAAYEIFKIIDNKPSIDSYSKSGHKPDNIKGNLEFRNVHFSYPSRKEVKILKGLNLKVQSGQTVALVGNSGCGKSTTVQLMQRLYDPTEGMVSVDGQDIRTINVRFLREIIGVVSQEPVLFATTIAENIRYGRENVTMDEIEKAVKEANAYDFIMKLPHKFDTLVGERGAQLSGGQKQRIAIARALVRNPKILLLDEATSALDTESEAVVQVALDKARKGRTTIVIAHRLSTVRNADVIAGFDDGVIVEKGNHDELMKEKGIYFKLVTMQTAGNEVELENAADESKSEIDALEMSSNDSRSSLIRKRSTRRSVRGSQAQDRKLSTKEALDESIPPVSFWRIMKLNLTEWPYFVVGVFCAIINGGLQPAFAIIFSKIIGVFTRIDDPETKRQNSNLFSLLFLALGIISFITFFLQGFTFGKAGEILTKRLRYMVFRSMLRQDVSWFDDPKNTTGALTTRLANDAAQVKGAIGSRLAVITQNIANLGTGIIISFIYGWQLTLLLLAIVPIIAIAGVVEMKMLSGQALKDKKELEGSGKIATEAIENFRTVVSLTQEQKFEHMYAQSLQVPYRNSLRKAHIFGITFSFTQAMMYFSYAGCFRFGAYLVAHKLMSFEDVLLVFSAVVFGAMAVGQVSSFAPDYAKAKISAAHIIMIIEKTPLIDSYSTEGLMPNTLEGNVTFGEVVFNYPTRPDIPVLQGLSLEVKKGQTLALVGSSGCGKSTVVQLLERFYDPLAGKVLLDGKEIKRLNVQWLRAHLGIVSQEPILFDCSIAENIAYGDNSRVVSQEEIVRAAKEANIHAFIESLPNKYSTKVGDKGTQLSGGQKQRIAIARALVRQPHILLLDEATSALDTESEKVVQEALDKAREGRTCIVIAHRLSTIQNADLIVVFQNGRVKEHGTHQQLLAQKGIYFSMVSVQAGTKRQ

What is called IC50 is the point on the concentration scale where inhibition reaches its midpoint. Take `CC#CCOc1cnc(C(=O)Nc2ccc(F)c([C@@]3(C)N=C(N)O[C@@H]4CCC(F)(F)[C@@H]43)c2)cn1` [Example 1, 5-But-2-ynyloxy-pyrazine-2-carboxylic acid [3-((4S,4aR,7aR)-2-amino-5,5-difluoro-4-methyl-4,4a,5,6,7,7a-hexahydro-cyclopenta[e][1,3]oxazin-4-yl)-4-fluoro-phenyl]-amide]: the IC50 in data set [1] stood at 0.4 nM. Also, in data set [2], the hERG inhibition entry is listed as “A (A = less than 50% inhibition @ 1 μM)”. Also, in data set [3], the efflux ratio at 2 h was 3 to 10.
`C[C@]1(c2cc(NC(=O)c3ccc(C#N)cn3)ccc2F)N=C(N)O[C@@H]2CCC(F)(F)[C@@H]21` [Example 2, 5-Cyano-pyridine-2-carboxylic acid [3-((4S,4aR,7aR)-2-amino-5,5-difluoro-4-methyl-4,4a,5,6,7,7a-hexahydro-cyclopenta[e][1,3]oxazin-4-yl)-4-fluoro-phenyl]-amide]: the IC50 in data set [1] stood at 1.5 nM. The hERG inhibition entry in data set [2] is reported as “A (A = less than 50% inhibition @ 1 μM)”. In addition, the efflux ratio at 2 h in data set [3] lay in the range of 3 to 10. Also, the “GSH human (glutathione adduct formation)” value in data set [4] is on record as “NF”.
Regarding `C[C@]1(c2cc(NC(=O)c3ccc(C#N)cn3)ccc2F)N=C(N)O[C@@H]2CCCC(F)(F)[C@@H]21` [Example 8, 5-Cyano-pyridine-2-carboxylic acid [3-((4S,4aR,8aR)-2-amino-5,5-difluoro-4-methyl-4a,5,6,7,8,8a-hexahydro-4H-benzo[e][1,3]oxazin-4-yl)-4-fluoro-phenyl]-amide], the IC50 in data set [1] stood at 2.2 nM. Also, in data set [2], the hERG inhibition result is given as “A (A = less than 50% inhibition @ 1 μM)”. In addition, in data set [4], the “GSH human (glutathione adduct formation)” value was “NF”.
